This note sets out measurements from patent publication US6319951A, “Use of 3-amino-4-hydroxybenzoic acid for the treatment of retroviral infections” (priority 1996, dated 2001).

One assay deals with Herpes simplex. Kind of assay: antimicrobial activity, Herpes simplex.
The next assay relates to Neisseria gonorrhoeae. The experiment in a line: antimicrobial activity, Neisseria gonorrhoeae.
The subject of the next assay is Treponema pallidum. The experiment in a line: antimicrobial activity, Treponema pallidum.
A further assay deals with Escherchia coli. Kind of assay: antimicrobial activity, Escherichia coli.
Another assay deals with Candida albicans. The experiment in a line: antimicrobial activity, fungi, Candida albicans.
Assay [1] has as its system HIV. The experiment in a line: T-cell counts of patients JE001-JE0015, once daily dosing (Example 5). Format: in vivo. Here is the method:
These were made on patients JE001-JE0015 who received 200 mg of 3-amino-4-hydroxybenzoic acid orally only once per day for two weeks and whose T-cell counts were analysed after only 6 weeks.
Continuous study of viral load by quantitative PCR when available will show the optimum dose and duration of administration of 3-amino-4-hydroxybenzoic acid.
An explanation is that the CD4 cells which carry HIV die after 3-amino-4-hydroxybenzoic acid kills the virus in them. Later as the precursor cells form other CD4 s without HIV to destroy them, the total CD4 count will be found even higher than before treatment.

Assay [2] relates to HIV. The experiment in a line: electron microscopy of patient blood (Example 6). As to conditions: two patients, before treatment and 28 days after. The class given is in vivo. The source says:
(§1) Blood samples were taken for electron microscopy and HIV culture before and after treatment of two patients.

Assay [3] relates to HIV. Kind of assay: HIV culture from patient blood (Example 6). The class given is in vivo.
Excerpt: as §1

The subject of assay [4] is HIV. Format: in vivo.
The mark [5] stands for this setting: patient three (8), in 6 months of treatment.

Turning to `Nc1cc(C(=O)O)ccc1O` [3-amino-4-hydroxybenzoic acid], the antimicrobial activity entry in the assay with Herpes simplex, with Neisseria gonorrhoeae, with Treponema pallidum, with Escherchia coli and with Candida albicans was “established” in each case. Also, the “T-cell results” value in the assay on HIV [1] (200 mg orally once per day, two weeks, analysed after 6 weeks, vs patient JC004 (200 mg tds)) was “The results were poor”. In addition, in the assay with HIV [1] (earlier than three months), the “CD4 count when counted earlier than three months” value is listed as “low figures even lower than before the start of treatment”. Moreover, in the assay with HIV [2], the “HIV particles by electron microscopy” value is reported as “HIV particles before treatment but not 28 days after treatment”. Besides, the “eradication of HIV from patients' blood” value with HIV [3] (3 mg/kg tds, 28 days) is “eradicates HIV from the patients blood”. Besides, the HIV culture growth result in the assay with HIV [3] (two patients, before treatment and after 28 days of treatment) is on record as “grew HIV but not after 28 days of treatment”. Also, the hair result in the assay with HIV [4] (patient four (9), by 6 weeks of treatment) is listed as “their thin silk hair had reverted to the normal Afro type”. The “body weight after treatment” value in the assay with HIV [4] (setting [5]) was 53 kg. This molecule showed a haemoglobin after treatment in the assay on HIV [4] (setting [5]) of 14.9%.
